Test results reported in US4230617A, “Somatostatin analogues” (American Home Products Corporation, priority 1979, dated 1980).
Counter-ions that a name gives are not always drawn. Positions of bridges follow the written chain, without caps; N, C: chain ends. Non-standard residues stand in square brackets, D forms with d. Residues, ends and D or L forms follow the SMILES beside them.

Legend:
Format in all cases: in vivo, albino male rats
growth hormone [1] = test: Arginine-stimulated growth hormone release in Nembutal-anesthetized rats, blood radioimmunoassay; settings: rat, * p < 0.01
Procedure: (§1) The in vivo activity of the polypeptides of this invention was established by subjecting the product of Examples 2 and 3 as representative compounds of the invention, to the following standard test procedure: Two groups of ten albino male rats were arranged to provide a control group and a group for study of the compounds of this invention. Nembutal (50 mg/kg) was injected intraperitoneally into each rat. Fifteen minutes late a subcutaneous injection of the test compound or physiological saline (control) was administered separately to each of the two groups of rats. Ten minutes later 0.5 milliliters of arginine (300 mg/ml., pH 7.2) was injected into the rats heart. The rats were decapitated five minutes later and their blood was collected in Trasylol-EDTA. Aliquot samples were radioimmunoassayed for growth hormone, insulin and glucagon.

insulin = test: Arginine-stimulated insulin release in Nembutal-anesthetized rats, blood radioimmunoassay; settings: rat
Procedure: as §1

glucagon = test: Arginine-stimulated glucagon release in Nembutal-anesthetized rats, blood radioimmunoassay; settings: rat
Procedure: as §1

growth hormone [2] = test: Duration test: same procedure with 2 and 4 hour period before blood sampling, growth hormone radioimmunoassay; settings: rat, 1,000 ug/kg
Procedure: as §1, with “glucagon. The results of these tests are presented below:” for “glucagon.”
The procedure described in the preceding paragraph was repeated with the exception that a 2 and 4 hour period was allowed to elapse before blood sampling.

[3] = summary statement, for periods up to about four hours
[4] = 2 hours before blood sampling, * p < 0.01
[5] = 4 hours before blood sampling, + p < 0.05

SMILES | GH (growth hormone [1]; 50 μg/kg subcutaneous, control 379 ± 50) | GH (growth hormone [1]; 200 μg/kg subcutaneous, control 202 ± 11) | INS (insulin; 50 μg/kg subcutaneous, control 137 ± 25) | INS (insulin; 200 μg/kg subcutaneous, control 238 ± 23, + p < 0.05) | insulin release (result in words) (insulin; [3]) | GLUN (glucagon; 50 μg/kg subcutaneous, control 119 ± 8, * p < 0.01) | GLUN (glucagon; 200 μg/kg subcutaneous, control 85 ± 6, * p < 0.01) | glucagon release (result in words) (glucagon; [3]) | GH (growth hormone [2]; [4]) | GH (growth hormone [2]; [5]) | GH (growth hormone [1]; 100 μg/kg subcutaneous, control 201 ± 40) | INS (insulin; 100 μg/kg subcutaneous, control 268 ± 21) | GLUN (glucagon; 100 μg/kg subcutaneous, control 89 ± 14)
C[C@@H](O)[C@@H]1NC(=O)[C@H](Cc2ccccc2)NC(=O)[C@H]([C@@H](C)O)NC(=O)[C@H](CCCCN)NC(=O)[C@@H](Cc2c[nH]c3ccccc23)NC(=O)[C@H](Cc2c[nH]c3ccccc23)NC(=O)[C@H](Cc2ccccc2)NC(=O)[C@H](Cc2c[nH]cn2)NC(=O)[C@H](CCCNC(=N)N)NC(=O)[C@@H](N)CSSC[C@@H](C(=O)O)NC(=O)[C@H](CO)NC1=O [Example 2, L-Cysteinyl-L-arginyl-L-histidyl-L-phenylalanyl-L-tryptophyl-D-tryptophyl-L-lysyl-L-threonyl-L-phenylalanyl-L-threonyl-L-seryl-L-cysteine cyclic (1-12) disulfide tetraacetate salt] (H-CRHFW[dW]KTFTSC-OH; disulfide 1-12) | 104 ± 8 ng/mL | 92 ± 8 ng/mL | 61 ± 4 μU/ml | 149 ± 23 μU/ml | suppress | 36 ± 8 pg/mL | 20 ± 4 pg/mL | suppress | 51 ± 9 ng/mL | 60 ± 11 ng/mL |  |  | 
C[C@@H](O)[C@@H]1NC(=O)[C@H](Cc2ccccc2)NC(=O)[C@H]([C@@H](C)O)NC(=O)[C@H](CCCCN)NC(=O)[C@@H](Cc2c[nH]c3ccccc23)NC(=O)[C@H](Cc2c[nH]cn2)NC(=O)[C@H](Cc2ccccc2)NC(=O)[C@H](Cc2c[nH]cn2)NC(=O)[C@H](CCCNC(=N)N)NC(=O)[C@@H](N)CSSC[C@@H](C(=O)O)NC(=O)[C@H](CO)NC1=O [Example 3, L-Cysteinyl-L-arginyl-L-histidyl-L-phenylalanyl-L-histidyl-D-tryptophyl-L-lysyl-L-threonyl-L-phenylalanyl-L-threonyl-L-seryl-L-cysteine cyclic (1-12) disulfide tetraacetate salt] (H-CRHFH[dW]KTFTSC-OH; disulfide 1-12) |  |  |  |  |  |  |  |  | 181 ± 59 ng/mL | 129 ± 29 ng/mL | 48 ± 20 ng/mL | 282 ± 48 μU/ml | 72 ± 13 pg/mL
